In paper PMC12514245, “Impaired migration and lung invasion of human melanoma by a novel small molecule targeting the transmembrane domain of death receptor p75^NTR” (EMBO Molecular Medicine, 2025):
“Also recorded” adds a separate entry of the source.

Target: T1, p75^NTR TMD (Homo sapiens, UniProt P08138)
T1 sequence (P08138 250-275 limits assumed): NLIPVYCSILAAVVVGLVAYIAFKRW
Assay: AraTM assay, wild-type p75NTR TMD (GFP/OD630)
Assay type: cell-based
Settings: structure-activity comparison

SMILES	activity in the AraTM assay
COc1ccc(-c2cncc(Nc3ccc(Br)c(Cl)c3)n2)cc1 [Np75-3B03]	best compound in this series; also recorded: less potent than MS_18
O=C(Nc1ccc([N+](=O)[O-])cc1)c1cncc(-c2cccc(OC3CCCC3)c2)n1 [Np75-3A51]	activity was lost
COc1cccc(-c2cncc(Nc3ccc([N+](=O)[O-])cc3)n2)c1 [Np75-3A02]	MS_18 more potent than Np75-3A01, -3A02
Cc1ccccc1-c1cncc(Nc2ccc([N+](=O)[O-])cc2)n1 [Np75-3A19]	Np75-3A21 better than -3A19 and -3A20
Cc1cccc(-c2cncc(Nc3ccc([N+](=O)[O-])cc3)n2)c1 [Np75-3A20]	Np75-3A21 better than -3A19 and -3A20
O=C(Nc1ccc([N+](=O)[O-])cc1)c1cncc(-c2ccc3ccccc3c2)n1 [Np75-3A49]	activity was lost
Cc1ccc(-c2cncc(Nc3ccc([N+](=O)[O-])cc3)n2)cc1 [Np75-3A21]	best compounds; also recorded: Np75-3A21 better than -3A19 and -3A20; also recorded: best hit from this series
COc1ccccc1-c1cncc(Nc2ccc([N+](=O)[O-])cc2)n1 [Np75-3A01]	MS_18 more potent than Np75-3A01, -3A02
